For one data set, the system named is HCT-116 cells. The data set can be described thus: MTT antiproliferative assay, HCT-116. The data set is classed as cell-based, human. The settings on record: Homo sapiens, HCT-116, 48 h, MTT, mean ± SD, n=3; for inhibition at 100 µM: read-out: % Growth Inhibition at 100 μM HCT-116. How it is done:
(§1) The antiproliferative activity of the target compounds against a normal L02 cell line and the three different human cancer cell lines viz. colorectal (HCT-116), liver (BEL-7402) and liver (HepG2) were evaluated using a standard MTT-based colorimetric assay. All cell lines were obtained from the Key Laboratory of Natural Resources and Functional Molecules of the Changbai Mountain (Yanbian University, Jilin, China) and maintained in Dulbecco’s modified Eagle’s medium (DMEM) and RPMI Media 1640 (RPMI1640), supplemented with 10% fetal bovine serum (FBS) at 37 °C in a humidified atmosphere containing 5% CO2.
(§2) Cells were plated in 96-well plates at appropriate densities to ensure exponential growth throughout the experimental period (9 × 10^3 cells per well) and then allowed to adhere for 24 h. Cells were then treated for 48 h with four serial concentrations (1, 10, 50 and 100 µM) of each compound. 5-fluorouracil (5-FU) was used as a positive control. After 48 h of incubation, 10 µL of MTT solution was added to each well to a final concentration of 2 mg/mL. Plates were then incubated for a further 4 h. After incubation, the MTT solution was removed and 150 µL of DMSO was added to each well for coloration. The plates were shaken vigorously for 10 min at room temperature to ensure complete solubilization. The optical density (OD) was read on a microplate reader (ELx800, BioTek, Highland Park, Winooski, VT, USA) at a wavelength of 492 nm and the data were subsequently analyzed. The percentage of cell growth inhibition was calculated from the following equation: Inhibitory rate (%) = [(1 − (ODtreated-ODblank)/(ODcontrol-ODblank)] × 100.(1)
Background: Tetrazolium assays rely on reduction of a dye to a coloured formazan, in cell work by metabolically active cells.

The next data set deals with BEL-7402 cells. The data set can be described thus: MTT antiproliferative assay, BEL-7402. The data set is classed as cell-based, human. To be noted: Homo sapiens, Bel-7402, 48 h, MTT, mean ± SD, n=3; for inhibition at 100 µM: read-out: % Growth Inhibition at 100 μM BEL-7402. How it is done: as §1, §2
The test system of the next data set is HepG2 cells. The data set can be described thus: MTT antiproliferative assay, HepG2. Format: cell-based, human. The settings on record: Homo sapiens, HepG2, 48 h, MTT, mean ± SD, n=3; for inhibition at 100 µM: read-out: % Growth Inhibition at 100 μM HepG2. How it is done: as §1, §2

inhibition, melting point and IC50 data for 13 compounds are collected here from publication PMC6337650 (Molecules, 2018).

What is called inhibition is the share of the control response that was lost under treatment. A word on the melting point: it is the temperature, or range, at which the solid turns liquid. Usually IC50 stands for the concentration needed to halve the response being measured. Low values mean greater potency in that assay, high ones weaker potency in that assay.

Structures are written as SMILES.

With `COc1ccc(NC(=O)COC(=O)[C@]2(C)CCC[C@@]3(C)[C@@H]4CC[C@@]5(C)C[C@]4(CC[C@@H]32)CC5=O)cc1` [Compound 4i, 2-((4-methoxyphenyl)amino)-2-oxoethyl(4R,4aS,6aR,9S,11aR,11bS)-4,9,11b-trimethyl-8-oxotetradecahydro-6a,9-methanocyclohepta[a]naphthalene-4-carboxylate], the melting point is 86 to 88 °C. In the data set on HCT-116 cells, the inhibition at 100 µM was 53.1 ± 2.56%. For the same compound, in the data set with BEL-7402 cells, the inhibition at 100 µM was found to be 45.6 ± 1.47%. Further, the inhibition at 100 µM with HepG2 cells is less than 10%.

`C[C@@]12CC[C@@H]3[C@@](CC[C@H]4[C@@]3(C)CCC[C@@]4(C)C(=O)OCC(=O)Nc3ccccc3F)(CC1=O)C2` [Compound 4e, 2-((2-fluorophenyl)amino)-2-oxoethyl(4R,4aS,6aR,9S,11aR,11bS)-4,9,11b-trimethyl-8-oxotetradecahydro-6a,9-methanocyclohepta[a]naphthalene-4-carboxylate] yielded a melting point of 168 to 169 °C. Besides, in the data set on HCT-116 cells, the inhibition at 100 µM stood at 27.9 ± 0.44%. Moreover, the inhibition at 100 µM in the data set with BEL-7402 cells was determined as 38.7 ± 1.52%. In the data set on HepG2 cells, the inhibition at 100 µM was less than 10%.

As to `COc1ccc(OC)c(NC(=O)COC(=O)[C@]2(C)CCC[C@@]3(C)[C@@H]4CC[C@@]5(C)C[C@]4(CC[C@@H]32)CC5=O)c1` [Compound 4j, 2-((2,5-dimethoxyphenyl)amino)-2-oxoethyl(4R,4aS,6aR,9S,11aR,11bS)-4,9,11b-trimethyl-8-oxotetradecahydro-6a,9-methanocyclohepta[a]naphthalene-4-carboxylate], the melting point was in the range of 166 to 168 °C. For the same compound, the inhibition at 100 µM with HCT-116 cells was less than 10%. Further, in the data set with BEL-7402 cells, the inhibition at 100 µM turned out to be 31.3 ± 1.76%. Further, in the data set on HepG2 cells, the inhibition at 100 µM is less than 10%.

`CCOP(=O)(OCC)C(NC(=O)COC(=O)[C@]1(C)CCC[C@@]2(C)[C@@H]3CC[C@@]4(C)C[C@]3(CC[C@@H]21)CC4=O)c1ccc(Cl)c(Cl)c1` (stereo partly drawn) [Compound 6e, 2-(((3,4-dichlorophenyl)(diethoxyphosphoryl)methyl)amino)-2-oxoethyl(4R,4aS,6aR,9S,11aR,11bS)-4,9,11b-trimethyl-8-oxotetradecahydro-6a,9-methanocyclohepta[a]naphthalene-4-carboxylate] had a melting point of 168 to 169 °C. Also, the inhibition at 100 µM in the data set with HCT-116 cells worked out at 43.5 ± 0.56%. For the same compound, in the data set on BEL-7402 cells, the inhibition at 100 µM turned out to be 49.9 ± 1.26%. Further, the inhibition at 100 µM with HepG2 cells turned out to be 39.5 ± 1.37%.

As for `COC(=O)C(NC(=O)C1(C)CCCC2(C)C3CCC4(C)CC3(CCC12)CC4=O)C(C)C` [Compound 3c, Methyl((4R,4aS,6aR,9S,11aR,11bS)-4,9,11b-trimethyl-8-oxotetradecahydro-6a,9-methanocyclohepta[a]naphthalene-4-carbonyl)-L-valinate], the inhibition at 100 µM was 54.7 ± 0.59% in the data set on HCT-116 cells, 66.6 ± 1.9% in the data set with BEL-7402 cells and 23.9 ± 0.85% in the data set with HepG2 cells.

Take `COC(=O)C(Cc1c[nH]c2ccccc12)NC(=O)C1(C)CCCC2(C)C3CCC4(C)CC3(CCC12)CC4=O` [Compound 3d, Methyl((4R,4aS,6aR,9S,11aR,11bS)-4,9,11b-trimethyl-8-oxotetradecahydro-6a,9-methanocyclohepta[a]naphthalene-4-carbonyl)-L-tryptophanate]: the melting point lay within 165 to 166 °C. For the same compound, in the data set with HCT-116 cells, the inhibition at 100 µM turned out to be 19.7 ± 1.11%. Besides, in the data set on BEL-7402 cells, the inhibition at 100 µM worked out at 35.8 ± 2.37%. In addition, the inhibition at 100 µM in the data set with HepG2 cells is less than 10%.

`C[C@@]12CC[C@@H]3[C@@](CC[C@H]4[C@@]3(C)CCC[C@@]4(C)C(=O)NCCN3CCCC3)(CC1=O)C2` [Compound 1a, (4R,4aS,6aR,9S,11aR,11bS)-4,9,11b-trimethyl-8-oxo-N-(2-(pyrrolidin-1-yl)ethyl)tetradecahydro-6a,9-methanocyclohepta[a]naphthalene-4-carboxamide] showed a melting point of 136 to 137 °C. The inhibition at 100 µM in the data set with HCT-116 cells was 65.2 ± 2.52%. For the same compound, in the data set with BEL-7402 cells, the inhibition at 100 µM was 87.1 ± 2.37%. Further, in the data set on HepG2 cells, the inhibition at 100 µM is 66 ± 1.33%.

In the case of `CN1CCN(C(=O)COC(=O)[C@]2(C)CCC[C@@]3(C)[C@@H]4CC[C@@]5(C)C[C@]4(CC[C@@H]32)CC5=O)CC1` [Compound 2a, 2-(4-methylpiperazin-1-yl)-2-oxoethyl(4R,4aS,6aR,9S,11aR,11bS)-4,9,11b-trimethyl-8-oxotetradecahydro-6a,9-methanocyclohepta[a]naphthalene-4-carboxylate], the melting point was in the range of 112 to 113 °C. Also, the inhibition at 100 µM in the data set on HCT-116 cells turned out to be 62.1 ± 1.02%. The inhibition at 100 µM in the data set on BEL-7402 cells was 65 ± 2.62%. In addition, the inhibition at 100 µM with HepG2 cells is 40.6 ± 0.7%.

Regarding `C[C@@]12CC[C@@H]3[C@@](CC[C@H]4[C@@]3(C)CCC[C@@]4(C)C(=O)OCC(=O)Nc3ccccc3Cl)(CC1=O)C2` [Compound 4b, 2-((2-chlorophenyl)amino)-2-oxoethyl(4R,4aS,6aR,9S,11aR,11bS)-4,9,11b-trimethyl-8-oxotetradecahydro-6a,9-methanocyclohepta[a]naphthalene-4-carboxylate], the melting point lay within 107 to 108 °C. Further, in the data set with HCT-116 cells, the inhibition at 100 µM is less than 10%. Moreover, the inhibition at 100 µM in the data set with BEL-7402 cells is less than 10%. In addition, the inhibition at 100 µM in the data set on HepG2 cells is less than 10%.

For the compound `O=c1[nH]cc(F)c(=O)[nH]1` [5-FU, 5-fluorouracil, reference compound], the IC50 came to 24.8 ± 2.08 µM in the data set on HCT-116 cells, 21.3 ± 2.43 µM with BEL-7402 cells and 23.4 ± 0.37 µM in the data set on HepG2 cells.

In turn, `C[C@@]12CC[C@@H]3[C@@](CC[C@H]4[C@@]3(C)CCC[C@@]4(C)C(=O)OCC(=O)N3CCN(c4ccccc4)CC3)(CC1=O)C2` [Compound 2c, 2-oxo-2-(4-phenylpiperazin-1-yl)ethyl(4R,4aS,6aR,9S,11aR,11bS)-4,9,11b-trimethyl-8-oxotetradecahydro-6a,9-methanocyclohepta[a]naphthalene-4-carboxylate] returned a melting point of 143 to 144 °C. For the same compound, the inhibition at 100 µM in the data set with HCT-116 cells stood at 15.7 ± 0.61%. The inhibition at 100 µM in the data set on BEL-7402 cells was 40.5 ± 0.87%. Besides, in the data set with HepG2 cells, the inhibition at 100 µM was less than 10%.

In turn, `CCOP(=O)(OCC)C(NC(=O)COC(=O)[C@]1(C)CCC[C@@]2(C)[C@@H]3CC[C@@]4(C)C[C@]3(CC[C@@H]21)CC4=O)c1ccccc1` (stereo partly drawn) [Compound 6a, 2-(((diethoxyphosphoryl)(phenyl)methyl)amino)-2-oxoethyl(4R,4aS,6aR,9S,11aR,11bS)-4,9,11b-trimethyl-8-oxotetradecahydro-6a,9-methanocyclohepta[a]naphthalene-4-carboxylate] yielded a melting point of 156 to 157 °C. Moreover, the inhibition at 100 µM in the data set on HCT-116 cells came to 50 ± 2.27%. In addition, the inhibition at 100 µM in the data set with BEL-7402 cells worked out at 33.7 ± 0.91%. For the same compound, in the data set on HepG2 cells, the inhibition at 100 µM was determined as 28 ± 0.99%.

Compound `C[C@@]12CC[C@@H]3[C@@](CC[C@H]4[C@@]3(C)CCC[C@@]4(C)C(=O)OCC(=O)Nc3ccc(Cl)cc3)(CC1=O)C2` [Compound 4d, 2-((4-chlorophenyl)amino)-2-oxoethyl(4R,4aS,6aR,9S,11aR,11bS)-4,9,11b-trimethyl-8-oxotetradecahydro-6a,9-methanocyclohepta[a]naphthalene-4-carboxylate] returned a melting point of 140 to 142 °C. Moreover, the inhibition at 100 µM in the data set on HCT-116 cells amounted to 56.9 ± 2.35%. For the same compound, the inhibition at 100 µM in the data set with BEL-7402 cells is 52.9 ± 2.11%. Moreover, the inhibition at 100 µM with HepG2 cells came to 31.9 ± 1.31%.
